Data taken from patent US9868742B2, “Substituted imidazo[1,2-b]pyridazines, substituted imidazo[1,5-b] pyridazines, related compounds, and their use in the treatment of medical disorders” (Lysosomal Therapeutics Inc., priority 2016, dated 2018).
≈ marks a conversion by molar mass, not a printed value.

assay: Compound solubility in water; assay type: physicochemical

solubility | Compound
1.9 µg/mL (≈ 5.39 µM) | Cc1cc(-c2cccc(F)c2)nn2c(C(=O)NC(C)(C)C3CC3)cnc12
1.4 µg/mL (≈ 4.15 µM) | Cc1cc(-c2cccnc2)nc2c(C(=O)NC(C)C3CC3)csc12 (stereo not shown)
6.9 µg/mL (≈ 20.4 µM) | Cc1cc(-c2ccc(F)cc2)nn2c(C(=O)N[C@@H](C)C3CC3)ncc12
1.1 µg/mL (≈ 2.54 µM) | Cc1cc(-c2cccc3ocnc23)nc2c(C(=O)NC(C3CC3)C(F)(F)F)nsc12 (stereo not shown)
3.1 µg/mL (≈ 7.89 µM) | CCCCCCOC1CCC(NC(=O)c2cnc3c(C)cc(Cl)nn23)CC1 (stereo not shown)
0.7 µg/mL (≈ 2.24 µM) | O=C(Nc1ccc2c(c1)CCC2)c1cnc2ccc(Cl)nn12
3.6 µg/mL (≈ 10.6 µM) | Cc1cc2ncc(C(=O)NC3CCCc4ccccc43)n2nc1Cl (stereo not shown)
17.5 µg/mL (≈ 53.7 µM) | O=C(NC1CCCc2ccccc21)c1cnc2ccc(Cl)nn12 (stereo not shown)
1.4 µg/mL (≈ 3.22 µM) | Cc1cc(-c2cccc(C(N)=O)c2)nc2c(C(=O)NC(C3CC3)C(F)(F)F)nsc12 (stereo not shown)
27.3 µg/mL (≈ 100 µM) | Cc1cc(C)c2ncc(C(=O)NC(C)(C)C3CC3)n2n1
0.1 µg/mL (≈ 0.265 µM) | Cc1cc(C#N)c(-c2cc(C)c3ncc(C(=O)N[C@@H](C)C(F)(F)F)n3n2)o1
1.5 µg/mL (≈ 3.72 µM) | Cc1nc2cc(-c3cc(C)c4ncc(C(=O)NC(C)C(F)(F)F)n4n3)ccc2o1 (stereo not shown)
17.2 µg/mL (≈ 52.9 µM) | C#CC(C)(C)NC(=O)c1cnc2c(C)cc(-c3ccns3)nn12
1.6 µg/mL (≈ 3.85 µM) | Cc1cc(-c2cccc3ocnc23)nn2c(C(=O)NC(C3CC3)C(F)(F)F)cnc12 (stereo not shown)
0.6 µg/mL (≈ 1.57 µM) | Cc1cc(-c2ccc(F)o2)nn2c(C(=O)NC(C3CC3)C(F)(F)F)cnc12 (stereo not shown)
1.1 µg/mL (≈ 2.81 µM) | Cc1cc(-c2cccc(F)c2C#N)nn2c(C(=O)N[C@@H](C)C(F)(F)F)cnc12 [(S)-6-(2-Cyano-3-fluorophenyl)-8-methyl-N-(1,1,1-trifluoropropan-2-yl)imidazo[1,2-b]pyridazine-3-carboxamide]
0.3 µg/mL (≈ 0.765 µM) | Cc1cc(-c2cccnc2)nc2c(C(=O)NC(C3CC3)C(F)(F)F)nsc12 (stereo not shown)
1.8 µg/mL (≈ 5.4 µM) | Cc1cc(C)c2ncc(C(=O)Nc3ccc(-c4cocn4)cc3)n2n1
4.4 µg/mL (≈ 11.3 µM) | Cc1cc(-c2cccc3ncoc23)nn2c(C(=O)NC(C)C(F)(F)F)cnc12 (stereo not shown)
1.5 µg/mL (≈ 4.59 µM) | Cc1cc2ncc(C(=O)Nc3ccc4c(c3)CCC4)n2nc1Cl
0.5 µg/mL (≈ 1.38 µM) | Cc1cc(-c2cccc(F)c2C#N)nn2c(C(=O)N[C@@H](C)C3CC3)cnc12 [(S)-6-(2-Cyano-3-fluorophenyl)-N-(1-cyclopropylethyl)-8-methylimidazo[1,2-b]pyridazine-3-carboxamide]
1 µg/mL (≈ 2.95 µM) | Cc1cc(-c2ccc(F)cc2)nn2c(C(=O)N[C@@H](C)C3CC3)nnc12

solubility | Compound
38.4 µg/mL (≈ 120 µM) | Cc1cc(C)c2cnc(C(=O)NC3CCCc4ccccc43)n2n1 (stereo not shown)
3 µg/mL (≈ 8.19 µM) | Cc1cc(-c2cccc(F)c2)nn2c(C(=O)NC(C)C(F)(F)F)ncc12 (stereo not shown)
0.03 µg/mL (≈ 0.0765 µM) | Cc1cc(-c2cccc(F)c2)nn2c(C(=O)NC(C3CC3)C(F)(F)F)cnc12 (stereo not shown)
1.9 µg/mL (≈ 4.86 µM) | Cc1cc(-c2ccc(F)cc2C#N)nn2c(C(=O)N[C@H](C)C(F)(F)F)cnc12
2.1 µg/mL (≈ 6.85 µM) | Cc1cc(C)c2cnc(C(=O)Nc3ccc4c(c3)CCC4)n2n1
0.7 µg/mL (≈ 1.78 µM) | Cc1cc(-c2ccccn2)nc2c(C(=O)NC(C3CC3)C(F)(F)F)nsc12 (stereo not shown)
1.9 µg/mL (≈ 4.55 µM) | Cc1cc(N2CCCC(F)(F)C2)nn2c(C(=O)N[C@@H](C3CC3)C(F)(F)F)cnc12
0.7 µg/mL (≈ 1.68 µM) | Cc1cc(-c2ccc(F)cc2C#N)nn2c(C(=O)NC(C3CC3)C(F)(F)F)cnc12 (stereo not shown)
0.1 µg/mL (≈ 0.305 µM) | Cc1cc(C)c2scc(C(=O)NC(C3CC3)C(F)(F)F)c2n1 (stereo not shown)
18.3 µg/mL (≈ 43.1 µM) | Cc1cc(N2CCN(C(C)C)C2=O)nn2c(C(=O)NC(C3CC3)C(F)(F)F)cnc12 (stereo not shown)
0.5 µg/mL (≈ 1.28 µM) | Cc1cc(-c2cccnc2)nc2c(C(=O)NC(C3CC3)C(F)(F)F)csc12 (stereo not shown)
0.2 µg/mL (≈ 0.51 µM) | Cc1cc(-c2cccc(F)c2)nn2c(C(=O)N[C@H](C3CC3)C(F)(F)F)ncc12 [(R)—N-(1-Cyclopropyl-2,2,2-trifluoroethyl)-2-(3-fluorophenyl)-4-methylimidazo[1,5-b]pyridazine-7-carboxamide]
0.2 µg/mL (≈ 0.481 µM) | Cc1cc(-c2ccc3ocnc3c2)nn2c(C(=O)NC(C3CC3)C(F)(F)F)cnc12 (stereo not shown)
0.5 µg/mL (≈ 1.2 µM) | Cc1cc(-c2ccc3ocnc3c2)nn2c(C(=O)N[C@@H](C3CC3)C(F)(F)F)cnc12
0.4 µg/mL (≈ 0.923 µM) | Cc1cc(-c2cccc(C(N)=O)c2)nc2c(C(=O)NC(C3CC3)C(F)(F)F)csc12 (stereo not shown)
15 µg/mL (≈ 50.6 µM) | C#Cc1ccc(NC(=O)c2cnc3ccc(Cl)nn23)cc1
1.9 µg/mL (≈ 4.86 µM) | Cc1cc(-c2ccc(F)cc2C#N)nn2c(C(=O)N[C@@H](C)C(F)(F)F)cnc12
0.3 µg/mL (≈ 0.732 µM) | Cc1cc(-c2cncc(Cl)c2)nn2c(C(=O)N[C@@H](C3CC3)C(F)(F)F)cnc12
0.1 µg/mL (≈ 0.25 µM) | Cc1cc(-c2ccccc2C#N)nn2c(C(=O)NC(C3CC3)C(F)(F)F)cnc12 (stereo not shown)
0.5 µg/mL (≈ 1.31 µM) | Cc1cc(-c2ccns2)nn2c(C(=O)NC(C3CC3)C(F)(F)F)cnc12 (stereo not shown)
1.9 µg/mL (≈ 5.19 µM) | Cc1cc(-c2cccc(F)c2)nn2c(C(=O)NC(C)C(F)(F)F)cnc12 (stereo not shown)
0.2 µg/mL (≈ 0.51 µM) | Cc1cc(-c2cccc(F)c2)nn2c(C(=O)N[C@@H](C3CC3)C(F)(F)F)ncc12 [(S)—N-(1-Cyclopropyl-2,2,2-trifluoroethyl)-2-(3-fluorophenyl)-4-methylimidazo[1,5-b]pyridazine-7-carboxamide]

solubility | Compound
2.7 µg/mL (≈ 7.17 µM) | COc1cccc(-c2cc(C)c3ncc(C(=O)NC(C4CC4)C4CC4)n3n2)c1
7.2 µg/mL (≈ 21.5 µM) | Cc1cc(C)c2ncc(C(=O)NC3(C)CCCc4ccccc43)n2n1 (stereo not shown)
3.6 µg/mL (≈ 9.1 µM) | Cc1cc(-c2cc(C)c3ncc(C(=O)N[C@H](C4CC4)C(F)(F)F)n3n2)sn1
0.7 µg/mL (≈ 1.8 µM) | Cc1cc(-c2occc2C#N)nn2c(C(=O)NC(C3CC3)C(F)(F)F)cnc12 (stereo not shown)
1.2 µg/mL (≈ 3.41 µM) | Cc1cc(-c2ccc(F)cc2)nn2c(C(=O)NC(C)(C)C3CC3)ncc12
0.7 µg/mL (≈ 1.86 µM) | C#CC(NC(=O)c1ncc2c(C)cc(-c3cccc(F)c3)nn12)C(F)(F)F (stereo not shown) [2-(3-Fluorophenyl)-4-methyl-N-(1,1,1-trifluorobut-3-yn-2-yl)imidazo[1,5-b]pyridazine-7-carboxamide]
8.8 µg/mL (≈ 27.5 µM) | Cc1cc(C)c2ncc(C(=O)NC3CCCc4ccccc43)n2n1 (stereo not shown)
0.3 µg/mL (≈ 0.732 µM) | Cc1cc(-c2cncc(Cl)c2)nn2c(C(=O)N[C@H](C3CC3)C(F)(F)F)cnc12
0.9 µg/mL (≈ 2.94 µM) | Cc1cc(C)c2ncc(C(=O)Nc3ccc4c(c3)CCC4)n2n1
6.7 µg/mL (≈ 19.6 µM) | Cc1cc(-c2ccns2)nn2c(C(=O)NC(C)(C)C3CC3)cnc12
18.8 µg/mL (≈ 61 µM) | CCC(NC(=O)c1cnc2c(C)cc(C)nn12)c1ccccc1 (stereo not shown)
1.2 µg/mL (≈ 2.88 µM) | Cc1cc(-c2ccc(F)cc2C#N)nn2c(C(=O)N[C@@H](C3CC3)C(F)(F)F)cnc12
17 µg/mL (≈ 46.6 µM) | CCCCCO[C@H]1CC[C@H](NC(=O)c2cnc3ccc(Cl)nn23)CC1
14.6 µg/mL (≈ 44.5 µM) | CCC(NC(=O)c1cnc2cc(C)c(Cl)nn12)c1ccccc1 (stereo not shown)
3.9 µg/mL (≈ 9.97 µM) | Cc1cc(-c2ccc(F)cc2C#N)nn2c(C(=O)NC(C)C(F)(F)F)cnc12 (stereo not shown)
16.8 µg/mL (≈ 42.8 µM) | CCCCCCOC1CCC(NC(=O)c2cnc3cc(C)c(Cl)nn23)CC1 (stereo not shown)
2.2 µg/mL (≈ 5.43 µM) | COc1cccc(-c2cc(C)c3ncc(C(=O)NC(C4CC4)C(F)(F)F)n3n2)n1 (stereo not shown)
2.3 µg/mL (≈ 6.33 µM) | Cc1cc(-c2ccc(F)cc2C#N)nn2c(C(=O)N[C@H](C)C3CC3)cnc12
1.2 µg/mL (≈ 3.08 µM) | Cc1cc(-c2ccc3ocnc3c2)nn2c(C(=O)N[C@@H](C)C(F)(F)F)cnc12
3.2 µg/mL (≈ 8.74 µM) | Cc1cc(-c2ccc(F)cc2)nn2c(C(=O)NC(C)C(F)(F)F)ncc12 (stereo not shown)
29.6 µg/mL (≈ 96 µM) | CCC(NC(=O)c1ncc2c(C)cc(C)nn12)c1ccccc1 (stereo not shown)
15.4 µg/mL (≈ 49.1 µM) | CCC(NC(=O)c1cnc2ccc(Cl)nn12)c1ccccc1 (stereo not shown)

solubility | Compound
0.3 µg/mL (≈ 0.918 µM) | Cc1cc(Cl)nn2c(C(=O)Nc3ccc4c(c3)CCC4)cnc12
0.4 µg/mL (≈ 1.2 µM) | Cc1cc(C)c2cnc(C(=O)Nc3ccc(-c4cocn4)cc3)n2n1
1.4 µg/mL (≈ 3.87 µM) | Cc1cc(-c2ccc3ocnc3c2)nn2c(C(=O)NC(C)C3CC3)cnc12 (stereo not shown)
8 µg/mL (≈ 22.7 µM) | Cc1cc(-c2cccc(F)c2)nn2c(C(=O)NC(C)(C)C3CC3)ncc12
0.9 µg/mL (≈ 2.55 µM) | Cc1cc(-c2ccc(F)cc2)nn2c(C(=O)NC(C)(C)C3CC3)cnc12
8.2 µg/mL (≈ 20.3 µM) | Cc1cc(N2CCC(F)(F)C2)nn2c(C(=O)NC(C3CC3)C(F)(F)F)cnc12 (stereo not shown)
24 µg/mL (≈ 88.1 µM) | Cc1cc(C)c2cnc(C(=O)NC(C)(C)C3CC3)n2n1
1.4 µg/mL (≈ 3.46 µM) | COc1cccc(-c2cc(C)c3ncc(C(=O)NC(C4CC4)C(F)(F)F)n3n2)c1 (stereo not shown)
3.5 µg/mL (≈ 9.12 µM) | Cc1cc(-c2cccc(Cl)n2)nn2c(C(=O)NC(C)C(F)(F)F)cnc12 (stereo not shown)
0.2 µg/mL (≈ 0.501 µM) | Cc1cc(-c2cccc(C#N)c2)nn2c(C(=O)NC(C3CC3)C(F)(F)F)cnc12 (stereo not shown)
6.5 µg/mL (≈ 19.2 µM) | Cc1cc(-c2ccc(F)cc2)nn2c(C(=O)N[C@@H](C)C3CC3)cnc12
1 µg/mL (≈ 2.57 µM) | Cc1cc(-c2ccc3ocnc3c2)nn2c(C(=O)N[C@H](C)C(F)(F)F)cnc12
0.3 µg/mL (≈ 0.722 µM) | Cc1cc(-c2cccc3ncoc23)nn2c(C(=O)NC(C3CC3)C(F)(F)F)cnc12 (stereo not shown)
1.8 µg/mL (≈ 6.2 µM) | C#Cc1ccc(NC(=O)c2ncc3c(C)cc(C)nn23)cc1
0.7 µg/mL (≈ 1.71 µM) | Cc1cc(-c2cncc(Cl)c2)nn2c(C(=O)N[C@@H](C3CC3)C(F)(F)F)ncc12 [(S)-2-(5-Chloropyridin-3-yl)-N-(1-cyclopropyl-2,2,2-trifluoroethyl)-4-methylimidazo[1,5-b]pyridazine-7-carboxamide]
3.9 µg/mL (≈ 10.9 µM) | CCCCCO[C@H]1CC[C@H](NC(=O)c2cnc3c(C)cc(C)nn23)CC1
1.3 µg/mL (≈ 3.34 µM) | Cc1cc(-c2ccc3ocnc3c2)nn2c(C(=O)NC(C)C(F)(F)F)cnc12 (stereo not shown)
0.3 µg/mL (≈ 1.03 µM) | C#Cc1ccc(NC(=O)c2cnc3c(C)cc(C)nn23)cc1
0.2 µg/mL (≈ 0.51 µM) | Cc1cc(-c2ccc(F)cc2)nn2c(C(=O)NC(C3CC3)C(F)(F)F)ncc12 (stereo not shown)
2.6 µg/mL (≈ 7.15 µM) | Cc1cc(-c2ccc(F)cc2C#N)nn2c(C(=O)N[C@@H](C)C3CC3)cnc12
1 µg/mL (≈ 2.33 µM) | Cc1cc(-c2ccc3ncn(C)c3c2)nn2c(C(=O)N[C@H](C3CC3)C(F)(F)F)cnc12 [(R)—N-(1-Cyclopropyl-2,2,2-trifluoroethyl)-8-methyl-6-(1-methyl-1H-benzo[d]imidazol-6-yl)imidazo[1,2-b]pyridazine-3-carboxamide]
1.3 µg/mL (≈ 3.3 µM) | Cc1cc(-c2cncc(F)c2)nn2c(C(=O)NC(C3CC3)C(F)(F)F)cnc12 (stereo not shown)
